Data as given in patent US9796711B2, “Substituted pyrazolo[3,4-b]pyridin-6-carboxylic acids and method of use” (AbbVie S.àr.l., priority 2015, dated 2017).

Legend:
ΔF508-CFTR [1] = target: T1, ΔF508-CFTR (Homo sapiens, UniProt P13569, DEL508-508); test: CFTR cell surface levels using HRP-tagged ΔF508-CFTR expressing CFBE cells, in the presence of a co-corrector; type: cell-based; conditions: HRP-tagged ΔF508-CFTR expressing CFBE cells, in the presence of 3 μM co-corrector; for EC50: read-out: EC50
T1 construct: host or cells: CFBE41o-, doxycycline-inducible
T1 sequence (P13569 with tags, fused parts or gaps DEL508-508): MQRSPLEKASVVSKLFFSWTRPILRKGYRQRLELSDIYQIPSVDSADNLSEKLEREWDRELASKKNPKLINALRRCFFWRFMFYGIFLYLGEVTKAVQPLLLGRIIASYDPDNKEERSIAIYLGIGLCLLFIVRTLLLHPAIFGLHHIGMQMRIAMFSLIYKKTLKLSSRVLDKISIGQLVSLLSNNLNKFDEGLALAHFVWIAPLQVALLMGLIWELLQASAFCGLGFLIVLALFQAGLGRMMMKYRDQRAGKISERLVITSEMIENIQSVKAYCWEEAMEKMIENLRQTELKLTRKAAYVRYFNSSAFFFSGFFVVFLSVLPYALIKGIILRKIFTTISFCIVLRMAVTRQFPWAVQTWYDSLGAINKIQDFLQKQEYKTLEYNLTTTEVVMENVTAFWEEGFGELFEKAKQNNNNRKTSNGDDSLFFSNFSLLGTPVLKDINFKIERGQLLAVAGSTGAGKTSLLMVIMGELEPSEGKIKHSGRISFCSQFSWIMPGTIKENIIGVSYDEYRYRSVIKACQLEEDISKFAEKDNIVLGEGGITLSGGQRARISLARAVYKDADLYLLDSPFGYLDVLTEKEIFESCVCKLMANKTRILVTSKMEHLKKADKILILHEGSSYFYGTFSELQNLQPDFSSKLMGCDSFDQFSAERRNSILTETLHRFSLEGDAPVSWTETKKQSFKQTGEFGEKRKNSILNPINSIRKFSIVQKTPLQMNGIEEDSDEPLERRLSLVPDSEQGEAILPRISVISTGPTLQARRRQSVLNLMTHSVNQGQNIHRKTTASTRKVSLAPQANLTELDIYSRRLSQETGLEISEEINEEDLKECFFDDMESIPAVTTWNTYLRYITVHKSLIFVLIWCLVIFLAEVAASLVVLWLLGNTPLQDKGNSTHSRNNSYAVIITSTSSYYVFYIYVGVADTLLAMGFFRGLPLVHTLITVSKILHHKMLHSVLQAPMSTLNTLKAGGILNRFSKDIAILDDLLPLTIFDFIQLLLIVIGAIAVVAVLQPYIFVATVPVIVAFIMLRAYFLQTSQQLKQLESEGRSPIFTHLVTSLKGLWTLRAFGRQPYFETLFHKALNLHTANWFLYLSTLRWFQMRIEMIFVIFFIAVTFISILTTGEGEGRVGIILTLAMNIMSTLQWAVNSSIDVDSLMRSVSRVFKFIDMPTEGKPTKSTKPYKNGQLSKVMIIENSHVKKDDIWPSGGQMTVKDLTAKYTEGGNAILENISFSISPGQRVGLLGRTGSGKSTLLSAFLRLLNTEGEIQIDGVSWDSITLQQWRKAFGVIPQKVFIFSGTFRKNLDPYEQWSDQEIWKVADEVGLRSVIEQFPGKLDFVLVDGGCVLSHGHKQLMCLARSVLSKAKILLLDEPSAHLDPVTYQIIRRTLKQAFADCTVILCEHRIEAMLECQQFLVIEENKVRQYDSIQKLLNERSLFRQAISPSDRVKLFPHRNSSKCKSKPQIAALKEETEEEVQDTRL
Procedure, shortened: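 Cells were seeded with 0.5 μg/mL doxycycline and held 68 h at 37 °C. Test compounds plus 3 μM co-corrector (final 0.1% DMSO) were then added for 20 h at 33 °C. Washed cells received HRP substrate, and luminescence was normalized between DMSO and 3 μM co-corrector controls.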

ΔF508-CFTR [2] = target: T1, ΔF508-CFTR; test: CFTR cell surface levels using HRP-tagged ΔF508-CFTR expressing CFBE cells, intrinsic corrector capacity; type: cell-based; conditions: for EC50: read-out: EC50
Procedure, shortened: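 Here the cells express ΔF508-CFTR with horseradish peroxidase inserted in extracellular loop 4, so only rescued channel at the surface gives luminescent signal. Compounds act on their own, 20 h at the reduced temperature of 33 °C; values are percent activity relative to DMSO and a 3 μM corrector.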

[3] = HRP-tagged ΔF508-CFTR CFBE cells, compound alone (intrinsic corrector capacity), 20 hours at 33° C.
[4] = HRP-tagged ΔF508-CFTR CFBE41o- cells, compounds alone (intrinsic corrector capacity), 20 hours at 33° C., positive control 3 μM corrector
[5] = HRP-tagged ΔF508-CFTR CFBE41o- cells, compounds alone (intrinsic corrector capacity), 20 hours at 33° C.
[6] = HRP-tagged ΔF508-CFTR expressing CFBE cells, intrinsic corrector capacity (no co-corrector), 33° C., 20 hours

SMILES: O=C(O)c1cc(N2CCC(N3CCOCC3)CC2)c2c(C3CCC3)nn(-c3ccnc(OCC4CCOCC4)c3)c2n1 [compound 919, 3-cyclobutyl-4-[4-(morpholin-4-yl)piperidin-1-yl]-1-{2-[(oxan-4-yl)methoxy]pyridin-4-yl}-1H-pyrazolo[3,4-b]pyridine-6-carboxylic acid]
- % Activation (ΔF508-CFTR [1]): 416.35%
- EC50 (ΔF508-CFTR [1]): 0.256 µM
- % Activation (ΔF508-CFTR [2]; [3]): 198.2%
- EC50 (ΔF508-CFTR [2]; [3]): 0.49 µM

SMILES: COCC1CCN(c2cc(C(=O)O)nc3c2c(C(C)C)nn3-c2cccc(N(C)C)c2)CC1 [compound 368, 1-[3-(dimethylamino)phenyl]-4-[4-(methoxymethyl)piperidin-1-yl]-3-(propan-2-yl)-1H-pyrazolo[3,4-b]pyridine-6-carboxylic acid]
- % Activation (ΔF508-CFTR [1]): 515.5%
- EC50 (ΔF508-CFTR [1]): 0.29 µM
- % Activation (ΔF508-CFTR [2]; [4]): 357.3%
- EC50 (ΔF508-CFTR [2]; [5]): 0.521 µM

SMILES: COc1ccc(-n2nc(C)c3c(-c4ccc(N5CCOCC5)cc4)cc(C(=O)O)nc32)cn1 [compound 61, 1-(6-methoxypyridin-3-yl)-3-methyl-4-[4-(morpholin-4-yl)phenyl]-1H-pyrazolo[3,4-b]pyridine-6-carboxylic acid]
- % Activation (ΔF508-CFTR [1]): 253.6%
- EC50 (ΔF508-CFTR [1]): 2.35 µM
- % Activation (ΔF508-CFTR [2]; [4]): 96.05%
- EC50 (ΔF508-CFTR [2]; [5]): 3.34 µM

SMILES: CC(C)c1nn(-c2cccc(C(F)(F)F)c2)c2nc(C(=O)O)cc(-c3ccc(N4CCC(C#N)CC4)nc3)c12 [compound 260, 4-[6-(4-cyanopiperidin-1-yl)pyridin-3-yl]-3-(propan-2-yl)-1-[3-(trifluoromethyl)phenyl]-1H-pyrazolo[3,4-b]pyridine-6-carboxylic acid]
- % Activation (ΔF508-CFTR [1]): 554.15%
- EC50 (ΔF508-CFTR [1]): 0.517 µM
- % Activation (ΔF508-CFTR [2]; [4]): 326.4%
- EC50 (ΔF508-CFTR [2]; [5]): 0.784 µM

SMILES: COCC1CCN(c2cc(C(=O)O)nc3c2c(C(C)C)nn3-c2ccnc(N3CCOCC3)n2)CC1 [compound 589]
- % Activation (ΔF508-CFTR [1]): 451.75%
- EC50 (ΔF508-CFTR [1]): 0.303 µM
- % Activation (ΔF508-CFTR [2]; [6]): 232.15%
- EC50 (ΔF508-CFTR [2]; [6]): 0.458 µM

SMILES: CC(C)c1nn(C2CCCOC2)c2nc(C(=O)O)cc(-c3ccc(N4CCOCC4)cc3)c12 (centres unmarked) [compound 68, 4-[4-(morpholin-4-yl)phenyl]-1-(oxan-3-yl)-3-(propan-2-yl)-1H-pyrazolo[3,4-b]pyridine-6-carboxylic acid]
- % Activation (ΔF508-CFTR [1]): 274.9%
- EC50 (ΔF508-CFTR [1]): 1.39 µM
- % Activation (ΔF508-CFTR [2]; [4]): 106.65%
- EC50 (ΔF508-CFTR [2]; [5]): 1.74 µM

SMILES: COCC1CN(c2cc(C(=O)O)nc3c2c(C)nn3-c2ccccc2)C1 [compound 294, 4-[3-(methoxymethyl)azetidin-1-yl]-3-methyl-1-phenyl-1H-pyrazolo[3,4-b]pyridine-6-carboxylic acid]
- % Activation (ΔF508-CFTR [1]): 225.5%
- EC50 (ΔF508-CFTR [1]): 2.51 µM
- % Activation (ΔF508-CFTR [2]; [4]): 73.275%
- EC50 (ΔF508-CFTR [2]; [5]): 2.51 µM

SMILES: O=C(O)c1cc(N2CCC(N3CCCC(C(F)(F)F)C3)CC2)c2c(C3CCC3)nn(-c3ccc(F)cc3)c2n1 (centres unmarked) [compound 874, 3-cyclobutyl-1-(4-fluorophenyl)-4-[3-(trifluoromethyl)[1,4′-bipiperidin]-1′-yl]-1H-pyrazolo[3,4-b]pyridine-6-carboxylic acid]
- % Activation (ΔF508-CFTR [1]): 608.35%
- EC50 (ΔF508-CFTR [1]): 0.083 µM
- % Activation (ΔF508-CFTR [2]; [6]): 330.7%
- EC50 (ΔF508-CFTR [2]; [6]): 0.17 µM

SMILES: CCN(CC)C1CCN(c2cc(C(=O)O)nc3c2c(C(C)C)nn3-c2ccc(F)cc2)CC1 [compound 787, 4-[4-(diethylamino)piperidin-1-yl]-1-(4-fluorophenyl)-3-(propan-2-yl)-1H-pyrazolo[3,4-b]pyridine-6-carboxylic acid]
- % Activation (ΔF508-CFTR [1]): 309.9%
- EC50 (ΔF508-CFTR [1]): 1.29 µM
- % Activation (ΔF508-CFTR [2]; [6]): 121.5%
- EC50 (ΔF508-CFTR [2]; [6]): 0.771 µM

SMILES: O=C(O)c1cc(N2CC(F)(F)C[C@@H]2CO)c2c(C3CCC3)nn(-c3ccccc3)c2n1 [compound 506, 3-cyclobutyl-4-[(2R)-4,4-difluoro-2-(hydroxymethyl)pyrrolidin-1-yl]-1-phenyl-1H-pyrazolo[3,4-b]pyridine-6-carboxylic acid]
- % Activation (ΔF508-CFTR [1]): 137.7%
- EC50 (ΔF508-CFTR [1]): > 10 µM
- % Activation (ΔF508-CFTR [2]; [6]): 40.12%
- EC50 (ΔF508-CFTR [2]; [6]): 3.34 µM

SMILES: CCN(CC)C1CCN(c2cc(C(=O)O)nc3c2c(C2CCC2)nn3-c2ccccc2)CC1 [compound 689, 3-cyclobutyl-4-[4-(diethylamino)piperidin-1-yl]-1-phenyl-1H-pyrazolo[3,4-b]pyridine-6-carboxylic acid]
- % Activation (ΔF508-CFTR [1]): 329%
- EC50 (ΔF508-CFTR [1]): 0.803 µM
- % Activation (ΔF508-CFTR [2]; [6]): 182.7%
- EC50 (ΔF508-CFTR [2]; [6]): 1.57 µM

SMILES: Cc1nn(C2CCCCC2)c2nc(C(=O)O)cc(-c3ccc(N4CCOCC4)nc3)c12 [compound 74, 1-cyclohexyl-3-methyl-4-[6-(morpholin-4-yl)pyridin-3-yl]-1H-pyrazolo[3,4-b]pyridine-6-carboxylic acid]
- % Activation (ΔF508-CFTR [1]): 257.2%
- EC50 (ΔF508-CFTR [1]): 1.48 µM
- % Activation (ΔF508-CFTR [2]; [4]): 116.7%
- EC50 (ΔF508-CFTR [2]; [5]): 2.56 µM

SMILES: CCOCC1(F)CCN(c2cc(C(=O)O)nc3c2c(C2CCC2)nn3-c2ccccc2)C1 (centres unmarked) [compound 510, 3-cyclobutyl-4-[3-(ethoxymethyl)-3-fluoropyrrolidin-1-yl]-1-phenyl-1H-pyrazolo[3,4-b]pyridine-6-carboxylic acid]
- % Activation (ΔF508-CFTR [1]): 313.2%
- EC50 (ΔF508-CFTR [1]): 0.397 µM
- % Activation (ΔF508-CFTR [2]; [6]): 99.8%
- EC50 (ΔF508-CFTR [2]; [6]): 1.11 µM

SMILES: CC(C)c1nn(-c2ccc(F)cc2)c2nc(C(=O)O)cc(N3CCC(N(C)C(C)C)CC3)c12 [compound 799, 1-(4-fluorophenyl)-4-{4-[methyl(propan-2-yl)amino]piperidin-1-yl}-3-(propan-2-yl)-1H-pyrazolo[3,4-b]pyridine-6-carboxylic acid]
- % Activation (ΔF508-CFTR [1]): 306.6%
- EC50 (ΔF508-CFTR [1]): 1.67 µM
- % Activation (ΔF508-CFTR [2]; [6]): 114%
- EC50 (ΔF508-CFTR [2]; [6]): 1.67 µM

SMILES: O=C(O)c1cc(N2CCN(CC3CCCO3)CC2)c2c(C3CCC3)nn(-c3ccccc3)c2n1 (centres unmarked) [compound 681, 3-cyclobutyl-4-{4-[(oxolan-2-yl)methyl]piperazin-1-yl}-1-phenyl-1H-pyrazolo[3,4-b]pyridine-6-carboxylic acid]
- % Activation (ΔF508-CFTR [1]): 373.05%
- EC50 (ΔF508-CFTR [1]): 0.197 µM
- % Activation (ΔF508-CFTR [2]; [6]): 220.95%
- EC50 (ΔF508-CFTR [2]; [6]): 0.408 µM

SMILES: N#CCCN1CCN(c2cc(C(=O)O)nc3c2c(C2CCC2)nn3-c2ccccc2)CC1 [compound 561, 4-[4-(2-cyanoethyl)piperazin-1-yl]-3-cyclobutyl-1-phenyl-1H-pyrazolo[3,4-b]pyridine-6-carboxylic acid]
- % Activation (ΔF508-CFTR [1]): 348%
- EC50 (ΔF508-CFTR [1]): 0.427 µM
- % Activation (ΔF508-CFTR [2]; [6]): 174.8%
- EC50 (ΔF508-CFTR [2]; [6]): 1.59 µM

SMILES: CC1CN(c2ccc(-c3cc(C(=O)O)nc4c3c(C(C)C)nn4C3CCCCC3)cn2)CC(C)O1 (centres unmarked) [compound 196, 1-cyclohexyl-4-[6-(2,6-dimethylmorpholin-4-yl)pyridin-3-yl]-3-(propan-2-yl)-1H-pyrazolo[3,4-b]pyridine-6-carboxylic acid]
- % Activation (ΔF508-CFTR [1]): 520.8%
- EC50 (ΔF508-CFTR [1]): 0.596 µM
- % Activation (ΔF508-CFTR [2]; [4]): 251.45%
- EC50 (ΔF508-CFTR [2]; [5]): 0.555 µM

SMILES: Cc1cccc(-n2nc(C(C)C)c3c(N4CC(F)C4)cc(C(=O)O)nc32)c1 [compound 174, 4-(3-fluoroazetidin-1-yl)-1-(3-methylphenyl)-3-(propan-2-yl)-1H-pyrazolo[3,4-b]pyridine-6-carboxylic acid]
- % Activation (ΔF508-CFTR [1]): 260.12%
- EC50 (ΔF508-CFTR [1]): 2.54 µM
- % Activation (ΔF508-CFTR [2]; [4]): 90.21%
- EC50 (ΔF508-CFTR [2]; [5]): 3.24 µM

SMILES: Cc1nn(-c2ccccc2)c2nc(C(=O)O)cc(OCCN3CCCC3)c12 [compound 342, 3-methyl-1-phenyl-4-[2-(pyrrolidin-1-yl)ethoxy]-1H-pyrazolo[3,4-b]pyridine-6-carboxylic acid]
- % Activation (ΔF508-CFTR [1]): 138.5%
- EC50 (ΔF508-CFTR [1]): 3.37 µM
- % Activation (ΔF508-CFTR [2]; [4]): 19.4%
- EC50 (ΔF508-CFTR [2]; [5]): 7.5 µM

SMILES: O=C(O)c1cc(N2CC[C@H](O)[C@H](F)C2)c2c(C3CCC3)nn(-c3ccccc3)c2n1 [compound 509, 3-cyclobutyl-4-[(3R,4S)-3-fluoro-4-hydroxypiperidin-1-yl]-1-phenyl-1H-pyrazolo[3,4-b]pyridine-6-carboxylic acid]
- % Activation (ΔF508-CFTR [1]): 344.6%
- EC50 (ΔF508-CFTR [1]): 1.67 µM
- % Activation (ΔF508-CFTR [2]; [6]): 123.6%
- EC50 (ΔF508-CFTR [2]; [6]): 1.24 µM

SMILES: COCCN(C)c1ccc(-c2cc(C(=O)O)nc3c2c(C(C)C)nn3C2CCCCC2)cn1 [compound 170, 1-cyclohexyl-4-{6-[(2-methoxyethyl)(methyl)amino]pyridin-3-yl}-3-(propan-2-yl)-1H-pyrazolo[3,4-b]pyridine-6-carboxylic acid]
- % Activation (ΔF508-CFTR [1]): 482.4%
- EC50 (ΔF508-CFTR [1]): 0.504 µM
- % Activation (ΔF508-CFTR [2]; [4]): 208.6%
- EC50 (ΔF508-CFTR [2]; [5]): 0.738 µM

SMILES: COCCC1(CCOc2cc(C(=O)O)nc3c2c(C2CCC2)nn3-c2ccccc2)CC1 [compound 484, 3-cyclobutyl-4-{2-[1-(2-methoxyethyl)cyclopropyl]ethoxyl}-1-phenyl-1H-pyrazolo[3,4-b]pyridine-6-carboxylic acid]
- % Activation (ΔF508-CFTR [1]): 226.6%
- EC50 (ΔF508-CFTR [1]): 0.369 µM
- % Activation (ΔF508-CFTR [2]; [6]): 113.5%
- EC50 (ΔF508-CFTR [2]; [6]): 1.11 µM

SMILES: Cc1nn(-c2ccccc2)c2nc(C(=O)O)cc(OC[C@@H](F)C3CCN(C)CC3)c12 [compound 379, 4-[(2S)-2-fluoro-2-(1-methylpiperidin-4-yl)ethoxy]-3-methyl-1-phenyl-1H-pyrazolo[3,4-b]pyridine-6-carboxylic acid]
- % Activation (ΔF508-CFTR [1]): 128.5%
- EC50 (ΔF508-CFTR [1]): 5.01 µM
- % Activation (ΔF508-CFTR [2]; [4]): 4.874%
- EC50 (ΔF508-CFTR [2]; [5]): 5.01 µM
